This data set can be described thus: Serum phosphate in rats. It counts as in vivo, rat. To be noted: 50 mg/kg/day oral gavage, at 24 hour or 1 week of daily dosing. Here is the method:
In the first experiment, Sprague Dawley rats (Charles River Labs; N=5/group) were dosed with vehicle, 10, 50 or 200 mg/kg/qwk of FGFR1-ECD.339-Fc for four weekly doses and plasma concentrations of FGFR1-ECD.339-Fc were determined throughout the study by an ELISA based detection method.
In the second experiment, Sprague Dawley rats (Charles River Labs; N=5/group) were administered the FGFR kinase inhibitor PD173074 (Chemdea, Ridgewood, N.J.; 50 mg/kg/day) or vehicle control by oral gavage for 7 days; or were administered FGFR1-ECD.339-Fc (200 mg/kg) or appropriate vehicle weekly by intravenous administration. Blood samples were collected at the time points indicated and serum phosphate was determined at 24 and 168 hours post-initiation of dosing (Idexx laboratories, Westbrook, Mass.).

Structures are written as SMILES.

This is an account of results in patent publication US10537611B2, “Methods of treating lung cancer” (Five Prime Therapeutics, Inc., priority 2011, dated 2020).

In the case of `CCN(CC)CCCCNc1ncc2cc(-c3cc(OC)cc(OC)c3)c(NC(=O)NC(C)(C)C)nc2n1` [PD173043], the plasma phosphate levels entry is recorded as “significantly elevated”.
